Data published in ChEMBL document CHEMBL1201862, “PubChem BioAssay data set” (2004).
Activity calls are given as the source filed them.

Columns and labels:
Large T antigen = Large T antigen (Simian virus 40, UniProt P03070); format: functional, Betapolyomavirus macacae;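 also: Confirmatory-stage PubChem screen for compounds that inhibit SV40 T antigen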
[1] = HEp-2 cell cytotoxicity, dose response, cytotoxicity control for RSV inhibitor project, HTS (AID 2410); format: functional; settings: human respiratory syncytial virus
Aminopeptidase N = biological target: T1, Aminopeptidase N (Plasmodium falciparum FcB1/Columbia, UniProt O96935); test: P. falciparum M1AAP inhibitors, biochemical, fluorogenic H-Leu-NHMec substrate, 1536-well (AID 1445); design: species or system Plasmodium falciparum 3D7, 3D7
T1 sequence (O96935 whole entry): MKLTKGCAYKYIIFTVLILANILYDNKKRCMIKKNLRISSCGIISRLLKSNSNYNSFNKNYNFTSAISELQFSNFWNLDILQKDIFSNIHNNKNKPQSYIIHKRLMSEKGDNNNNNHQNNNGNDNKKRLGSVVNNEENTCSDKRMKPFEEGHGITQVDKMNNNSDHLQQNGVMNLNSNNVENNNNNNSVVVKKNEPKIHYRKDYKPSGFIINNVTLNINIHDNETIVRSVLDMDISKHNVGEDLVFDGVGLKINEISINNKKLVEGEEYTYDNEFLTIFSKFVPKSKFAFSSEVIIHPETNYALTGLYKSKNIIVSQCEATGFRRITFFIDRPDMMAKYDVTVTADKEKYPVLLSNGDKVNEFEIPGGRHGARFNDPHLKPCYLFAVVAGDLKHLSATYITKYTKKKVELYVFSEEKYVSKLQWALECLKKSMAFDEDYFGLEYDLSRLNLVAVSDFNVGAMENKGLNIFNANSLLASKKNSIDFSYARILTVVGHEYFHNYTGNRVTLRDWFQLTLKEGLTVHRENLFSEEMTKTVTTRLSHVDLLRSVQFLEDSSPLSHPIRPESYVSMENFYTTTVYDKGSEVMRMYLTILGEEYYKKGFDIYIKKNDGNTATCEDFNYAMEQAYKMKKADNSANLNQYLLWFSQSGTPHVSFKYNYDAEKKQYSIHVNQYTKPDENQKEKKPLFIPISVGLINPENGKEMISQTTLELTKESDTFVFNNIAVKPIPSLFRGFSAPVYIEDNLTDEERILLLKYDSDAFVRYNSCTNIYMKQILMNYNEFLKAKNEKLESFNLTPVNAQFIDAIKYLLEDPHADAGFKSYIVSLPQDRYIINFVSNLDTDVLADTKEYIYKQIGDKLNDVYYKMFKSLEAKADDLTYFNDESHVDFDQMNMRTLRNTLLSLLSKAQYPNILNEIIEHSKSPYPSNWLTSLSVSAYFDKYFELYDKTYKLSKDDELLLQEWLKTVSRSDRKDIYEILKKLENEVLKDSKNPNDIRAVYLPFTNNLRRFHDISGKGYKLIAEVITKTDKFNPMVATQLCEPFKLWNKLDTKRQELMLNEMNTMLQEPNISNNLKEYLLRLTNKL

[2] = cytotoxicity in HEK-293T cells, dose response, cytotoxicity control for TCR NF-kB inhibitor project, luminescence, T-cell screen hits (AID 489026); format: functional, cell-based;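 also: cells exposed to compound about 14 hours before the viability readout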
[3] = biological target: Eukaryotic translation initiation factor 4E (Mus musculus, UniProt P63073); test: eIF4E–eIF4G protein interaction inhibitors, dose response, biochemical, TR-FRET (AID 855); format: functional;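 also: potency for disrupting eIF4E binding to eIF4GI seen as loss of FRET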
Eukaryotic translation initiation factor 4E, sequence (P63073 whole entry): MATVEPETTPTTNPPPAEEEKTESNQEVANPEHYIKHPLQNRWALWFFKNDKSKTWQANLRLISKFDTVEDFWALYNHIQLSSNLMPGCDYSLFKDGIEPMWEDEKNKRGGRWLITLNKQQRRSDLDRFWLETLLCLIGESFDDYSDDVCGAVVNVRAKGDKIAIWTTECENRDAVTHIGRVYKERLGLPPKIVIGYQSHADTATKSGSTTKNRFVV

cells = format: functional
Nonstructural protein 1 = Nonstructural protein 1 (Influenza A virus, UniProt Q194T2); format: functional, Influenza A virus (A/California/07/2009(H1N1))
Nonstructural protein 1, sequence (Q194T2 whole entry, the tested form may be a part): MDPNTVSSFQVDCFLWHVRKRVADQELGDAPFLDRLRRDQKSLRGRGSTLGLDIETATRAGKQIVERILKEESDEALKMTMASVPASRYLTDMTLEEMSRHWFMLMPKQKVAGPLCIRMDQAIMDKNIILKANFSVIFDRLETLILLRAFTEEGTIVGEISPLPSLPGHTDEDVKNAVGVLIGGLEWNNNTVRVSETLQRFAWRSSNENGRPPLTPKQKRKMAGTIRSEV

[4] = inhibitors of clade B AD8 Env fusion, dose response, cell-based, cherry-pick (AID 652062); format: functional;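 also: luciferase signal from cell-cell fusion driven by HIV-1 clade B AD8 Env; potency is for inhibitors of fusion seen as a drop in luminescence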
[5] = inhibitors of HIV Env-driven cell fusion, dose response, cherry-pick (AID 652057); format: functional, cell-based
[6] = biological target: T2, Carboxy-terminal domain RNA polymerase II polypeptide A small phosphatase 1 (Homo sapiens, UniProt Q9GZU7); test: inhibitors of CTDSP1, concentration-response testing, biochemical assay, absorbance-based, actives from ultra-high-throughput screening (AID 540297); format: functional
T2 sequence (Q9GZU7 whole entry): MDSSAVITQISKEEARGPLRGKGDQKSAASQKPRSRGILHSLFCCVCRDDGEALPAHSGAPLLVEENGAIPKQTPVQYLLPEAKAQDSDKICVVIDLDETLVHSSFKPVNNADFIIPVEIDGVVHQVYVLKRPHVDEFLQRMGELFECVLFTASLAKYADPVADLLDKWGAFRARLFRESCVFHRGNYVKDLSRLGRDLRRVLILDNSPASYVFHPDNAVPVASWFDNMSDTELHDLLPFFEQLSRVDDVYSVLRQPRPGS

[7] = biological target: DNA dC->dU-editing enzyme APOBEC-3G (Homo sapiens, UniProt Q9HC16); test: Dose Response confirmation of small molecule APOBEC3G DNA Deaminase Inhibitors via a fluorescence-based single-stranded DNA deaminase assay. [Related pubchem assays (depositor defined):AID493012, AID493028]; format: functional
DNA dC->dU-editing enzyme APOBEC-3G, sequence (Q9HC16 whole entry): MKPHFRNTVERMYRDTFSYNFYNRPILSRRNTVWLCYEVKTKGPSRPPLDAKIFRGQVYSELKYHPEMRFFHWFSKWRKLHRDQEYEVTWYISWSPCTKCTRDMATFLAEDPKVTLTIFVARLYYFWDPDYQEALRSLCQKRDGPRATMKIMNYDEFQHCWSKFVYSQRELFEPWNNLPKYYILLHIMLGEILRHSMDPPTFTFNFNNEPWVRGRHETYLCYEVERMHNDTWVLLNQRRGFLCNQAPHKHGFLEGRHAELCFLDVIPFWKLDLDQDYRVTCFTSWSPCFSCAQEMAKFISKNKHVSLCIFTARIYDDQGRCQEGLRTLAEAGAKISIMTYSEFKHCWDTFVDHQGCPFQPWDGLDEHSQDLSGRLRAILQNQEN

[8] = biological target: T3, Sentrin-specific protease 7 (Homo sapiens, UniProt Q9BQF6); format: functional;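 also: Luminescence-based dose-response confirmation of ultra-high-throughput screening hits, measuring inhibition of SENP7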
T3 sequence (Q9BQF6 whole entry): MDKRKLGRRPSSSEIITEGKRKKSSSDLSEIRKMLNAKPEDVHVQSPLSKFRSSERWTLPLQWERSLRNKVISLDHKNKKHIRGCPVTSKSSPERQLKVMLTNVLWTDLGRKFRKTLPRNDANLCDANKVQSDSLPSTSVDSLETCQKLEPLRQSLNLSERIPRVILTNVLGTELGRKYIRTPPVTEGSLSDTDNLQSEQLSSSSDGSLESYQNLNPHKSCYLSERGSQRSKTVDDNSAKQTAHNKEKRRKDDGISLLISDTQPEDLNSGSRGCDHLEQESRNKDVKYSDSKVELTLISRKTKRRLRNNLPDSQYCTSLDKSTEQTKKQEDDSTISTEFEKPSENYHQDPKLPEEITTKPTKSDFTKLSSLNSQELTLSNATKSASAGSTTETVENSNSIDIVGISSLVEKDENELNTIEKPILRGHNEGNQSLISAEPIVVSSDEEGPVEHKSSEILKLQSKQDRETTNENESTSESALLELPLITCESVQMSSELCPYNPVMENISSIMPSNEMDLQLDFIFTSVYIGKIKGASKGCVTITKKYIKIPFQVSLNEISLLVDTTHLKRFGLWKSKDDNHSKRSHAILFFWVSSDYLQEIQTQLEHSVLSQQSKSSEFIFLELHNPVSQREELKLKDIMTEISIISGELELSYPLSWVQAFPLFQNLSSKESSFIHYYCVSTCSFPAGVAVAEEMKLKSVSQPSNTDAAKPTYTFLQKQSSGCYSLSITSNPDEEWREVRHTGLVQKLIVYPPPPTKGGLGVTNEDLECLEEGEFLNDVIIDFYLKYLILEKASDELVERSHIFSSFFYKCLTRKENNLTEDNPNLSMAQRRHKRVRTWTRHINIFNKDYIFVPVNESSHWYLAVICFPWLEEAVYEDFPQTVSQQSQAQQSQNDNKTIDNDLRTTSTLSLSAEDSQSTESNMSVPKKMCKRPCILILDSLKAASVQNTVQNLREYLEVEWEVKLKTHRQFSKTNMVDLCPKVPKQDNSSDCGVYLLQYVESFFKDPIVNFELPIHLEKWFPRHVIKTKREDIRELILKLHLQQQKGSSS

[9] = biological target: T4, Sentrin-specific protease 8 (Homo sapiens, UniProt Q96LD8); format: functional;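 also: luminescence read-out of SENP8 inhibition, dose-response confirmation following an ultra-high-throughput screen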
T4 sequence (Q96LD8 whole entry): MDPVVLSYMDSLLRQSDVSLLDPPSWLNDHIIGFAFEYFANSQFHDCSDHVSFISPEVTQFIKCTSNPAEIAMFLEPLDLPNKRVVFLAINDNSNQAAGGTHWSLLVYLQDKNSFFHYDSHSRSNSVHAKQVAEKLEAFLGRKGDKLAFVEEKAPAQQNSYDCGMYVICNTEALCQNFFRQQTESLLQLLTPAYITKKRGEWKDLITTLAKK

[10] = biological target: T5, Sentrin-specific protease 6 (Homo sapiens, UniProt Q9GZR1); format: functional;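 also: Luminescence-based dose-response confirmatory assay of SENP6 inhibition, following up an ultra-high-throughput screen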
T5 sequence (Q9GZR1 whole entry): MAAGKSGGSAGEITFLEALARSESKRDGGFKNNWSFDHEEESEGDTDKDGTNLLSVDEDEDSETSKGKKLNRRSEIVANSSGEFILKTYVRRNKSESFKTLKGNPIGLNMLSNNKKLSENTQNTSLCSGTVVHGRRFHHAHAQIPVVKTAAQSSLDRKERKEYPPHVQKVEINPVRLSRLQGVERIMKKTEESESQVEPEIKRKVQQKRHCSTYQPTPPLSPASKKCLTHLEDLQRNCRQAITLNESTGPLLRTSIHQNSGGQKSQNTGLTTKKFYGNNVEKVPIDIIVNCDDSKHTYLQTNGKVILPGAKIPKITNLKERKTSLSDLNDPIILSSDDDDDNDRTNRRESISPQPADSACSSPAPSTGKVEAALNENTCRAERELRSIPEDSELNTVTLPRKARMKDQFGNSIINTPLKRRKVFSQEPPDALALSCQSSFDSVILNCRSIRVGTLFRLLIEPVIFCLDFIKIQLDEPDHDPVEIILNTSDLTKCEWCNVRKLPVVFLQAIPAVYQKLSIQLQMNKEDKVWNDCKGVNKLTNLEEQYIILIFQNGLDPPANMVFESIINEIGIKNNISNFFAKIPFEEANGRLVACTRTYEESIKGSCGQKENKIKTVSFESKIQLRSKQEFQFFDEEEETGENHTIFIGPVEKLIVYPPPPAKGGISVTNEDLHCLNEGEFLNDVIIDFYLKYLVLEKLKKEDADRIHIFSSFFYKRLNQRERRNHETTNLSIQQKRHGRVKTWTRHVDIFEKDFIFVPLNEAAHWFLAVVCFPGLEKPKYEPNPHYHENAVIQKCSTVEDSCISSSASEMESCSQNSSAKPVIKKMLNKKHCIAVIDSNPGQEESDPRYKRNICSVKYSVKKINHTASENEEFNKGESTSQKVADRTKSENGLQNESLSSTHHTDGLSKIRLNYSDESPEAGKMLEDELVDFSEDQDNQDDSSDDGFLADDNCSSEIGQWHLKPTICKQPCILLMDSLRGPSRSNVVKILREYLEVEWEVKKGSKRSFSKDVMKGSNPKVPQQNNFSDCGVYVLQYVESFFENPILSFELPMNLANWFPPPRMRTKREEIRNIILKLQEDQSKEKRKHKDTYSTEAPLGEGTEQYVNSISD

Large T antigen, sequence (P03070 whole entry): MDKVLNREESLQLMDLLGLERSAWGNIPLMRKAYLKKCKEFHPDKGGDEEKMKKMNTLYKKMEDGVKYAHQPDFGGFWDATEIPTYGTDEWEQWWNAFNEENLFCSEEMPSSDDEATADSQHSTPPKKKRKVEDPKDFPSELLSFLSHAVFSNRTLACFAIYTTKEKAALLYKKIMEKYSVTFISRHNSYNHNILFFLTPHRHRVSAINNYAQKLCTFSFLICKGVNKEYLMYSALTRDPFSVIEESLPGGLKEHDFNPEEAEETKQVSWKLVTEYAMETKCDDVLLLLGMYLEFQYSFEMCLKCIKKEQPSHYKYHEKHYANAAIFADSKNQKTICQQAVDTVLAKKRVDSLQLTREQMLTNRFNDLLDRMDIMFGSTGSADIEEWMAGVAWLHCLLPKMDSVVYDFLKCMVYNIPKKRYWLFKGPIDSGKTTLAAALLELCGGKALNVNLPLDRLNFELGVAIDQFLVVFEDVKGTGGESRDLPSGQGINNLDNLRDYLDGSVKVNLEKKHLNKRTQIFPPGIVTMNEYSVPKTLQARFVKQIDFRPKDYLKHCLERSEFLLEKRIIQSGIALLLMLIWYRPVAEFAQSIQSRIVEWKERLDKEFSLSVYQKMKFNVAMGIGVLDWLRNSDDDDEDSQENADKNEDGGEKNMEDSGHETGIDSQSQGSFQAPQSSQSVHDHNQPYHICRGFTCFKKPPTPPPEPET

For `CCOc1cc(NS(=O)(=O)c2ccc(NC(C)=O)cc2)c(OCC)cc1NC(=O)c1cccs1`, the IC50 (Large T antigen) was 24 µM (active).
For `O=c1cc(CN2CCN(c3ccc(O)cc3)CC2)nc2scc(-c3ccccc3)n12`, the IC50 (Large T antigen) was 10.5 µM (active).
In the case of `Cc1ccc2nc(NS(C)(=O)=O)sc2c1`, the CC50 [1] is reported as 23 µM (active).
With `CN(C(=O)c1ccccc1OCc1ccc(Cl)cc1)c1ccccc1` the CC50 [1] was 25.7 µM (active).
In the case of `COc1cc(NS(=O)(=O)c2ccc(NC(=S)NC(=O)c3cccs3)cc2)nc(OC)n1`, the IC50 (Aminopeptidase N) is reported as 38.9 µM (active).
With `CN1/C(=C\C(=O)c2cccnc2)Sc2ccccc21` the CC50 [1] was 26.5 µM (active).
With `O=[N+]([O-])c1ccc(Sc2ccc(Cl)c(Cl)c2)nc1` the IC50 [2] was > 80 µM (inactive).
With `CCn1c(CNC(=O)c2cccs2)nnc1SCC(=O)NCCc1ccccc1` the IC50 (Aminopeptidase N) was 90 µM (active).
With `COc1ccc(C(=O)CN2C(=O)NC(C)(c3ccc(C)cc3)C2=O)cc1OC` (centres undefined) the IC50 [3] was > 64 µM (inactive).
For `Cc1cccc(NC(=O)c2ccc(OC3CSC3)cc2)c1`, the IC50 (cells) was 44 µM (active).
In the case of `Cc1ccc2cc(CCNS(=O)(=O)c3ccc(Br)cc3)c(O)nc2c1C`, the CC50 [1] is reported as 22.1 µM (active).
In the case of `CN1CCN(C(=S)SCC(=O)Nc2ccc(Cl)cc2C(=O)c2ccccc2)CC1`, the IC50 (Nonstructural protein 1) is reported as > 100 µM (active).
With `Cc1ccc(S(=O)(=O)NNC2=NS(=O)(=O)c3ccccc32)c(C)c1` the IC50 (Aminopeptidase N) was 9.97 µM (active).
For `CCCCc1nc(NCCNC(=O)c2ccco2)c(C#N)c2c1CSC(C)(C)C2`, the IC50 (Aminopeptidase N) was 85.3 µM (active).
With `COc1ccc(OC2C(=O)N(Cc3ccc4c(c3)OCO4)C2c2cccs2)cc1` (centres undefined) the AC50 [4] was 1.71 µM (active) and the AC50 [5] was 53.1 µM (active).
In the case of `CCN(CC)c1ccc(S(=O)(=O)N(CC)CC)cc1NC(=O)c1cccnc1`, the IC50 (Aminopeptidase N) is reported as 28.5 µM (active).
With `CCN(CC)S(=O)(=O)c1ccc(OC)c(NC(=O)Cc2cccs2)c1` the IC50 [6] was 4.5 µM (active) and the IC50 [3] was 50 µM (inactive).
With `N#C/C(=C\c1ccc(OC(=O)c2ccc(Br)s2)cc1)c1nc2ccccc2[nH]1` the IC50 [6] was 1.78 µM (active) and the IC50 [3] was > 64 µM (inactive).
With `CC1CCN(c2c(NCC3CCC(C(=O)NCCc4ccc(Cl)cc4)CC3)c(=O)c2=O)CC1` (centres undefined) the CC50 [1] was > 50 µM (active).
For `O=C1CCC(C(=O)Nc2cccc(S(=O)(=O)Nc3ccccc3F)c2)=NN1`, the IC50 [7] was 24.6 µM (active).
In the case of `C[C@H](NC(=O)c1ccccc1)C(=O)Nc1nc(-c2ccccn2)cs1`, the IC50 (Nonstructural protein 1) is reported as 16.3 µM (active).
In the case of `Cc1ccc(S(=O)(=O)N(C)C[C@@H]2Oc3ccc(NC(=O)Cn4cnnn4)cc3CC(=O)N([C@H](C)CO)C[C@@H]2C)cc1`, the AC50 [4] is reported as 7.7 µM (active) and the AC50 [5] is reported as 2.96 µM (active).
With `C[C@H]1CN([C@@H](C)CO)C(=O)c2ccccc2-c2ccccc2CO[C@H]1CN(C)S(=O)(=O)c1cccc(C#N)c1` the AC50 [4] was 0.743 µM (active) and the AC50 [5] was < 0.26 µM (active).
For `CCOC(=O)C(C)Oc1cccc2c(=O)n(CC(=O)NCc3ccco3)ccc12` (centres undefined), the IC50 [2] was > 80 µM (inactive).
For `Cc1[nH]n(C(N)=S)c(=O)c1/N=N/c1ccccc1C(F)(F)F`, the IC50 [8] was 12.7 µM (active), the IC50 [9] was 15.5 µM (active) and the IC50 [10] was 18.9 µM (active).
For `O=[N+]([O-])c1cc(/C=N/N=C(/Nc2ccccn2)c2ccccn2)ccc1O`, the IC50 (Nonstructural protein 1) was 2.46 µM (active).
In the case of `COc1ccccc1-c1noc(-c2ccccc2)n1`, the IC50 [3] is reported as > 64 µM (inactive).
